Square brackets hold non-standard residues; d marks the D form. Peptide text beside a SMILES is read from it. 2Nal = N[C@@H](Cc1ccc2ccccc2c1)C(=O)O; pGlu = O=C1CC[C@@H](C(=O)O)N1
Columns and labels:
[1] = target: Corticotropin-releasing factor receptor 2 (Mus musculus) (UniProt Q60748); test: In vitro agonistic activity against mouse corticotropin releasing factor 2 receptor; format: functional
[2] = system: Mus musculus; test: In vivo percentage inhibition against casting induced tibialis anterior mass loss in mouse at a dosage of 10 ug/kg/day; format: functional
[3] = target: T1, Corticotropin-releasing factor receptor 1 (Mus musculus, UniProt P35347); test: In vitro effective concentration for mouse corticotropin releasing factor 1 receptor
T1 sequence (P35347 whole entry): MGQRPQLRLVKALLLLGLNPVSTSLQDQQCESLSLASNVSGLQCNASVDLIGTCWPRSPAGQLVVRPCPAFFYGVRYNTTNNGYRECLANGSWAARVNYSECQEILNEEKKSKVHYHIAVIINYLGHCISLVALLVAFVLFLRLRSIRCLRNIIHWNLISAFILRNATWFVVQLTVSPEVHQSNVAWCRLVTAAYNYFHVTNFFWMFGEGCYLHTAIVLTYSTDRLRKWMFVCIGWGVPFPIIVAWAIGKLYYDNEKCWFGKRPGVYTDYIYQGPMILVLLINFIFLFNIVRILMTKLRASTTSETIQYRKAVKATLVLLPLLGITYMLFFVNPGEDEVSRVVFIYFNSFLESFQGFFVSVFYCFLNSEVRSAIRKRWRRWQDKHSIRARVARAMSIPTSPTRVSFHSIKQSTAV

[4] = system: Mus musculus; test: In vivo percentage inhibition against casting induced tibialis anterior mass loss in mouse at a dosage of 100 ug/kg/day; format: functional
[5] = system: Mus musculus; test: In vivo percentage inhibition against casting induced tibialis anterior mass loss in mouse at a dosage of 30 ug/kg/day; format: functional
[6] = target: Corticotropin-releasing factor receptor 2 (Mus musculus, UniProt Q60748); test: In vitro effective concentration for mouse corticotropin releasing factor 2 receptor
Corticotropin-releasing factor receptor 2, sequence (Q60748 whole entry): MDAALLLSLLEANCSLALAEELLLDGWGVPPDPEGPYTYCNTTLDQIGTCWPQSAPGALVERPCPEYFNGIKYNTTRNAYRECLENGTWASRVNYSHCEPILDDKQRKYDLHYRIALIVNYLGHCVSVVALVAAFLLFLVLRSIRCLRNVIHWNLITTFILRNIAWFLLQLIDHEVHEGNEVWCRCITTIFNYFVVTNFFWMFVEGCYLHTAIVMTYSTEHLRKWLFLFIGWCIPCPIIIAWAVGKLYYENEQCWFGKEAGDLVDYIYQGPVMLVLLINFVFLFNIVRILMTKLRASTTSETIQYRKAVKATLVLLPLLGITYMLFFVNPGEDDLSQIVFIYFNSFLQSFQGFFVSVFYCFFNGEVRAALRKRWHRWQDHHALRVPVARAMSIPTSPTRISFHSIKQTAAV

[7] = target: T2, Corticotropin-releasing factor receptor 1 (Mus musculus) (UniProt P35347); test: In vitro agonistic activity against mouse corticotropin releasing factor 1 receptor; format: functional
T2 sequence (whole entry): T1 sequence (P35347 whole entry)

[8] = species on record: Mus musculus; test: Selectivity ratio of EC50s for mouse corticotropin releasing factor receptors 1 and 2
[9] = system: Mus musculus; test: In vivo percentage inhibition against casting induced tibialis anterior mass loss in mouse at a dosage of 300 ug/kg/day; format: functional; details: read-out: Inhibition

Corticotropin-releasing factor receptor 2 (Mus musculus), sequence (Q60748 whole entry): as above

| Emax [1] | EC50 [3] | EC50 [6] | Emax [7] | Selectivity [8] | SMILES | inhibition in vivo at 0.01 mg/kg/day [2] | inhibition in vivo at 0.1 mg/kg/day [4] | inhibition in vivo at 0.03 mg/kg/day [5] | inhibition in vivo at 0.3 mg/kg/day [9] |
| --- | --- | --- | --- | --- | --- | --- | --- | --- | --- |
| 100% |  |  | 8% | > 45 | CC[C@H](C)[C@H](NC(=O)[C@@H](NC(=O)[C@H](CC(=O)O)NC(=O)[C@H](CC(C)C)NC(=O)[C@H](CC(C)C)NC(=O)[C@H](CC(C)C)NC(=O)[C@H](CCCN=C(N)N)NC(=O)[C@H](CC(N)=O)NC(=O)[C@H](CC(N)=O)NC(=O)[C@H](C)NC(=O)[C@H](C)NC(=O)[C@H](CCC(N)=O)NC(=O)[C@H](CCC(N)=O)NC(=O)[C@H](CCCCN)NC(=O)[C@H](CCC(=O)O)NC(=O)[C@H](CCCCN)NC(=O)[C@H](CCC(=O)O)NC(=O)[C@H](CCC(N)=O)NC(=O)[C@H](CCCCN)NC(=O)[C@H](CCC(=O)O)NC(=O)[C@@H](NC(=O)[C@H](CCC(=O)O)NC(=O)[C@@H](NC(=O)[C@H](CCSC)NC(=O)[C@H](CCCCN)NC(=O)[C@H](CCCN=C(N)N)NC(=O)[C@H](CC(C)C)NC(=O)[C@H](CC(C)C)NC(=O)[C@H](Cc1ccc(O)cc1)NC(=O)[C@@H](NC(=O)[C@@H]1CCCN1C(=O)[C@H](CC(C)C)NC(=O)[C@H](CC(=O)O)NC(=O)[C@@H](NC(=O)[C@H](CO)NC(=O)[C@@H](NC(=O)[C@@H]1CCCN1C(=O)[C@@H]1CCCN1C(=O)CNC(=O)[C@@H]1CCC(=O)N1)[C@@H](C)CC)[C@@H](C)CC)[C@@H](C)CC)[C@@H](C)CC)[C@@H](C)CC)[C@@H](C)O)C(=O)O |  | 38% | 24% | 58% |
| 88% | > 1000 nM | 15.6 nM | 72% | > 64 | CC[C@H](C)[C@H](NC(=O)[C@@H](NC(=O)[C@H](CC(=O)O)NC(=O)[C@H](CC(C)C)NC(=O)[C@H](CC(C)C)NC(=O)[C@H](CC(C)C)NC(=O)[C@H](CCCN=C(N)N)NC(=O)[C@H](CC(N)=O)NC(=O)[C@H](CC(N)=O)NC(=O)[C@H](C)NC(=O)[C@H](C)NC(=O)[C@H](CCC(N)=O)NC(=O)[C@H](CCC(N)=O)NC(=O)[C@H](CCCCN)NC(=O)[C@H](CCC(=O)O)NC(=O)[C@H](CCCCN)NC(=O)[C@H](CCC(=O)O)NC(=O)[C@H](CCC(N)=O)NC(=O)[C@H](CCCCN)NC(=O)[C@H](CCC(=O)O)NC(=O)[C@@H](NC(=O)[C@H](CCC(=O)O)NC(=O)[C@@H](NC(=O)[C@H](CCSC)NC(=O)[C@H](CCCCN)NC(=O)[C@H](CCCN=C(N)N)NC(=O)[C@H](CC(C)C)NC(=O)[C@H](CC(C)C)NC(=O)[C@H](CC(C)C)NC(=O)[C@@H](NC(=O)[C@@H]1CCCN1C(=O)[C@H](CC(C)C)NC(=O)[C@H](CC(=O)O)NC(=O)[C@@H](NC(=O)[C@H](CO)NC(=O)[C@@H](NC(=O)[C@@H]1CCCN1C(=O)[C@@H]1CCCN1C(=O)CNC(=O)[C@@H]1CCC(=O)N1)[C@@H](C)CC)[C@@H](C)CC)[C@@H](C)CC)[C@@H](C)CC)[C@@H](C)CC)[C@@H](C)O)C(=O)O | 10% | 91% | 66% |  |

More lines, now with the values behind:

| SMILES | Emax [1] | EC50 [3] | EC50 [6] | Emax [7] | Selectivity [8] | inhibition in vivo at 0.01 mg/kg/day [2] | inhibition in vivo at 0.1 mg/kg/day [4] | inhibition in vivo at 0.03 mg/kg/day [5] | inhibition in vivo at 0.3 mg/kg/day [9] |
| --- | --- | --- | --- | --- | --- | --- | --- | --- | --- |
| CC[C@H](C)[C@H](NC(=O)[C@@H](NC(=O)[C@H](CC(=O)O)NC(=O)[C@H](CC(C)C)NC(=O)[C@H](CC(C)C)NC(=O)[C@H](CC(C)C)NC(=O)[C@H](CCCN=C(N)N)NC(=O)[C@H](CC(N)=O)NC(=O)[C@H](CC(N)=O)NC(=O)[C@H](C)NC(=O)[C@H](C)NC(=O)[C@H](CCC(N)=O)NC(=O)[C@H](CCC(N)=O)NC(=O)[C@H](CCCCN)NC(=O)[C@H](CCC(=O)O)NC(=O)[C@H](CCCCN)NC(=O)[C@H](CCC(=O)O)NC(=O)[C@H](CCC(N)=O)NC(=O)[C@H](CCCCN)NC(=O)[C@H](CCC(=O)O)NC(=O)[C@@H](NC(=O)[C@H](CCC(=O)O)NC(=O)[C@@H](NC(=O)[C@H](CCSC)NC(=O)[C@H](CCCCN)NC(=O)[C@H](CCCN=C(N)N)NC(=O)[C@H](CC(C)C)NC(=O)[C@H](Cc1ccc2ccccc2c1)NC(=O)[C@H](Cc1c[nH]c2ccccc12)NC(=O)[C@H](CC(C)C)NC(=O)[C@@H]1CCCN1C(=O)[C@H](CC(C)C)NC(=O)[C@H](CC(=O)O)NC(=O)[C@@H](NC(=O)[C@H](CO)NC(=O)[C@@H](NC(=O)[C@@H]1CCCN1C(=O)[C@@H]1CCCN1C(=O)CNC(=O)[C@@H]1CCC(=O)N1)[C@@H](C)CC)[C@@H](C)CC)[C@@H](C)CC)[C@@H](C)CC)[C@@H](C)O)C(=O)O ([pGlu]GPPISIDLPLW[2Nal]LRKMIEIEKQEKEKQQAANNRLLLDTI-OH) | 73% | 63.4 nM | 3.3 nM | 100% | 19 | 53% | 79% | 45% |  |
| CC[C@H](C)[C@H](NC(=O)[C@@H](NC(=O)[C@H](CC(=O)O)NC(=O)[C@H](CC(C)C)NC(=O)[C@H](CC(C)C)NC(=O)[C@H](CC(C)C)NC(=O)[C@H](CCCN=C(N)N)NC(=O)[C@H](CC(N)=O)NC(=O)[C@H](CC(N)=O)NC(=O)[C@H](C)NC(=O)[C@H](C)NC(=O)[C@H](CCC(N)=O)NC(=O)[C@H](CCC(N)=O)NC(=O)[C@H](CCCCN)NC(=O)[C@H](CCC(=O)O)NC(=O)[C@H](CCCCN)NC(=O)[C@H](CCC(=O)O)NC(=O)[C@H](CCC(N)=O)NC(=O)[C@H](CCCCN)NC(=O)[C@H](CCC(=O)O)NC(=O)[C@@H](NC(=O)[C@H](CCC(=O)O)NC(=O)[C@@H](NC(=O)[C@H](CCSC)NC(=O)[C@H](CCCCN)NC(=O)[C@H](CCCN=C(N)N)NC(=O)[C@H](CC(C)C)NC(=O)[C@H](CC(C)C)NC(=O)[C@H](CCC(N)=O)NC(=O)[C@H](Cc1ccccc1)NC(=O)[C@@H]1CCCN1C(=O)[C@H](CC(C)C)NC(=O)[C@H](CC(=O)O)NC(=O)[C@@H](NC(=O)[C@H](CO)NC(=O)[C@@H](NC(=O)[C@@H]1CCCN1C(=O)[C@@H]1CCCN1C(=O)CNC(=O)[C@@H]1CCC(=O)N1)[C@@H](C)CC)[C@@H](C)CC)[C@@H](C)CC)[C@@H](C)CC)[C@@H](C)O)C(=O)O | 100% |  |  | 64% | 62 |  | 46% | 58% | 50% |
| CC[C@H](C)[C@H](NC(=O)[C@@H](NC(=O)[C@H](CC(=O)O)NC(=O)[C@H](CC(C)C)NC(=O)[C@H](CC(C)C)NC(=O)[C@H](CC(C)C)NC(=O)[C@H](CCCN=C(N)N)NC(=O)[C@H](CC(N)=O)NC(=O)[C@H](CC(N)=O)NC(=O)[C@H](C)NC(=O)[C@H](C)NC(=O)[C@H](CCC(N)=O)NC(=O)[C@H](CCC(N)=O)NC(=O)[C@H](CCCCN)NC(=O)[C@H](CCC(=O)O)NC(=O)[C@H](CCCCN)NC(=O)[C@H](CCC(=O)O)NC(=O)[C@H](CCC(N)=O)NC(=O)[C@H](CCCCN)NC(=O)[C@H](CCC(=O)O)NC(=O)[C@@H](NC(=O)[C@H](CCC(=O)O)NC(=O)[C@@H](NC(=O)[C@H](CCSC)NC(=O)[C@H](CCCCN)NC(=O)[C@H](CCCN=C(N)N)NC(=O)[C@H](CC(C)C)NC(=O)[C@H](CC(C)C)NC(=O)[C@H](Cc1c[nH]c2ccccc12)NC(=O)[C@@H](NC(=O)[C@@H]1CCCN1C(=O)[C@H](CC(C)C)NC(=O)[C@H](CC(=O)O)NC(=O)[C@@H](NC(=O)[C@H](CO)NC(=O)[C@@H](NC(=O)[C@@H]1CCCN1C(=O)[C@@H]1CCCN1C(=O)CNC(=O)[C@@H]1CCC(=O)N1)[C@@H](C)CC)[C@@H](C)CC)[C@@H](C)O)[C@@H](C)CC)[C@@H](C)CC)[C@@H](C)O)C(=O)O | 100% | > 1000 nM | 15.2 nM | 43% | > 66 | 30% | 91% | 84% |  |
| CC[C@H](C)[C@H](NC(=O)[C@@H](NC(=O)[C@H](CC(=O)O)NC(=O)[C@H](CC(C)C)NC(=O)[C@H](CC(C)C)NC(=O)[C@H](CC(C)C)NC(=O)[C@H](CCCN=C(N)N)NC(=O)[C@H](CC(N)=O)NC(=O)[C@H](CC(N)=O)NC(=O)[C@H](C)NC(=O)[C@H](C)NC(=O)[C@H](CCC(N)=O)NC(=O)[C@H](CCC(N)=O)NC(=O)[C@H](CCCCN)NC(=O)[C@H](CCC(=O)O)NC(=O)[C@H](CCCCN)NC(=O)[C@H](CCC(=O)O)NC(=O)[C@H](CCC(N)=O)NC(=O)[C@H](CCCCN)NC(=O)[C@H](CCC(=O)O)NC(=O)[C@@H](NC(=O)[C@H](CCC(=O)O)NC(=O)[C@@H](NC(=O)[C@H](CCSC)NC(=O)[C@H](CCCCN)NC(=O)[C@H](CCCN=C(N)N)NC(=O)[C@H](CC(C)C)NC(=O)[C@H](CC(C)C)NC(=O)[C@H](Cc1ccc(O)cc1)NC(=O)[C@@H](NC(=O)[C@@H]1CCCN1C(=O)[C@H](CC(C)C)NC(=O)[C@H](CC(=O)O)NC(=O)[C@@H](NC(=O)[C@H](CO)NC(=O)[C@@H](NC(=O)[C@@H]1CCCN1C(=O)[C@@H]1CCCN1C(=O)CNC(=O)[C@@H]1CCC(=O)N1)[C@@H](C)CC)[C@@H](C)CC)[C@@H](C)O)[C@@H](C)CC)[C@@H](C)CC)[C@@H](C)O)C(=O)O | 82% | > 1000 nM | 18.2 nM | 48% | > 55 |  | 25% | 3% | 59% |
